System: Connaught BCG within primary CD14+ human monocytes
Assay type: cell-based

PACMA-31 [reference compound]
effect of PDIA1 inhibitor on GzmA-mediated mycobacterial inhibition, BCG (PACMA-31 200 nM or Rutin 50 μM pretreatment combined with GzmA-WT): enhanced mycobacterial inhibitory activity
intracellular bacterial burden, PDIA1 inhibitor alone (PACMA-31 200 nM or Rutin 50 μM, 30 min pretreatment, no GzmA): did not influence the intracellular bacterial burden

— US20240100133A1, “ENZYMATICALLY INACTIVE GRANZYME A AND USES THEREFORE” (Saint Louis University, priority 2022, published 2024)
